The values that follow come from US20250129084A1, “Compounds” (GlaxoSmithKline Intellectual Property Development Limited, priority 2022, published 2025).

Converted amounts (≈) assume the structure as drawn. Like-named read-outs stand apart in the source and are kept apart here.

Experiment [1] concerns Mycobacterium tuberculosis H37Rv. Description: Acute Mycobacterium tuberculosis in vivo assay.
The test system is the same in experiment [2]. The experiment in a line: Mycobacterium tuberculosis in vitro H37Rv extracellular inhibition assay (OD readout). The following applies: 192 h, read-out: Assay 2 MIC (μM) extracellular. It counts as cell-based.
Experiment [3] concerns Mycobacterium tuberculosis H37Rv in human macrophages THP-1. Description: Mycobacterium tuberculosis in vitro H37Rv in human macrophages THP-1 inhibition assay (intracellular assay). It counts as cell-based. As to conditions: read-out: Assay 3 MIC (μM) intracellular. The text has this: Assay 3 Mycobacterium tuberculosis In Vitro H37Rv in Human Macrophages THP-1 Inhibition Assay
This ex-vivo assay may represent physiological conditions that mimic disease and take into consideration the favourable contribution of host cells.

In experiment [4] the target is T1, Mycobacterium tuberculosis lysine tRNA synthetase (MtKRS) (Mycobacterium tuberculosis, UniProt P9WFU9).
T1 construct: made in house; host or cells: E. coli BL21 (DE3)
T1 sequence (P9WFU9 whole entry): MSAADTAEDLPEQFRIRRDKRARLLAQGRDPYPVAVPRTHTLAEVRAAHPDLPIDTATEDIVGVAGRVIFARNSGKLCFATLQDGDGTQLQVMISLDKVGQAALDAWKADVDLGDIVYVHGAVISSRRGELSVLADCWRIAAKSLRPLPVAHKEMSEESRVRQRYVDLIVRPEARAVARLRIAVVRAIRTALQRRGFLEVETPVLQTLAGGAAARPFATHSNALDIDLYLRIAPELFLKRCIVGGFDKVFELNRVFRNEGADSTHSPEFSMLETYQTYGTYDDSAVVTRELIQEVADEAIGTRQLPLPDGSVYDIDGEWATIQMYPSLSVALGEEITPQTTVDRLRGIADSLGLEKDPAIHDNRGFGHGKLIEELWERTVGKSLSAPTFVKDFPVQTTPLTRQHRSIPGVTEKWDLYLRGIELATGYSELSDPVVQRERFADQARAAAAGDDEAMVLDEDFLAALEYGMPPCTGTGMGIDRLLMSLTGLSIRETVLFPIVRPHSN
Description: biochemical. The following applies: 40 nM MtKRS, 30 μM ATP, 12 μM L-lysine, 20 hours incubation; read-out: Assay 1 Mtb KRS.

Setting [5] is: H37Rv in THP-1 human macrophages.

As to `CCOc1nc(N)nc2c1C(=O)N([C@@H]1CCCCC[C@@H]1O)C2` [Example 46, 2-Amino-4-ethoxy-6-((1R,2S)-2-hydroxycycloheptyl)-6,7-dihydro-5H-pyrrolo[3,4-d]pyrimidin-5-one], the “Log PCR reduction in acute efficacy study @ 50 mg/kg” value in experiment [1] (C57BL/6 mice, 50 mg/kg oral once a day, day 1 to day 8) worked out at 3. For the same compound, the “Assay 4 ED99” value in experiment [1] (female C57BL/6 mice, intratracheal infection, oral once a day day 1 to day 8, lungs harvested day 9) turned out to be 7 mg/kg. Besides, the MIC in experiment [2] (H37RV) came to 0.5 µM (≈ 0.153 µg/mL); in experiment [3] (H37RV) it was 1.1 µM (≈ 0.337 µg/mL).

Regarding `CNc1nc(N)nc2c1C(=O)N([C@H]1[C@@H](O)CCCCC1(F)F)C2` [Example 51, 2-Amino-6-((1S,7S)-2,2-difluoro-7-hydroxycycloheptyl)-4-(methylamino)-6,7-dihydro-5H-pyrrolo[3,4-d]pyrimidin-5-one], the figures for the MIC in experiment [2] (H37RV) and in experiment [3] (H37RV) were 1 µM (≈ 0.327 µg/mL) and 0.3 µM (≈ 0.0982 µg/mL), respectively. The IC50 in experiment [4] came out at 200 nM.

Regarding `Nc1nc2c(c(-n3cccn3)n1)C(=O)N([C@H]1[C@@H](O)CCCCC1(F)F)C2` [Example 52, 2-Amino-6-((1S,7S)-2,2-difluoro-7-hydroxycycloheptyl)-4-(1H-pyrazol-1-yl)-6,7-dihydro-5H-pyrrolo[3,4-d]pyrimidin-5-one], in experiment [1] (C57BL/6 mice, 12 mg/kg oral once a day, day 1 to day 8), the “CFU reduction @12 mg/kg (acute efficacy study)” value is listed as 0.4 (CFU reduction. Besides, the MIC in experiment [2] (H37Rv, 7H9 medium, 8 days, Abs 590 nm) is 0.1 µM (≈ 0.0364 µg/mL); in experiment [3] (setting [5]), 0.06 µM (≈ 0.0219 µg/mL). In experiment [4], the IC50 stood at 80 nM.

As to `CCOc1cnn(-c2nc(N)nc3c2C(=O)N([C@@H]2CCCC[C@@H]2O)C3)c1` [Example 53, 2-amino-4-(4-ethoxy-1H-pyrazol-1-yl)-6-((1R,2S)-2-hydroxycyclohexyl)-6,7-dihydro-5H-pyrrolo[3,4-d]pyrimidin-5-one], the MIC in experiment [3] (setting [5]) was found to be 0.3 µM (≈ 0.108 µg/mL). The IC50 in experiment [4] worked out at 300 nM.

Regarding `CCOc1cnn(-c2nc(N)nc3c2C(=O)N([C@H]2CCCCC2(F)F)C3)c1` [Example 54, (S)-2-amino-6-(2,2-difluorocyclohexyl)-4-(4-ethoxy-1H-pyrazol-1-yl)-6,7-dihydro-5H-pyrrolo[3,4-d]pyrimidin-5-one], in experiment [4], the IC50 was 200 nM.
